Earlier results, collected in patent EP4484428A1, “CUCURBITURIL DERIVATIVES FOR RADIOLABELING, PROCESSES OF PRODUCTION AND USES THEREOF” (Université de Bourgogne, priority 2023, dated 2025).

Tested on: (strept)avidin
Conditions: biotin-(strept)avidin pair, association constant

O=C(O)CCCC[C@@H]1SC[C@@H]2NC(=O)N[C@@H]21 [biotin]
affinity (K): 10^15 M^-1
